Patent US11371994B2, “Phosphorylated Akt-specific capture agents, compositions, and methods of using and making” (California Institute of Technology, priority 2013, dated 2022)
Square brackets hold non-standard residues; d marks the D form. Ends that are not written are not given here. dPra = C#CC[C@@H](N)C(=O)O

Key:
Assay type in all cases: binding
Akt = target: T1, Akt (Homo sapiens, UniProt P31751); assay: OVCAR3 lysate pull-down (immunoprecipitation) assay; conditions: eluents stained with pan-Akt antibody
T1 construct: endogenous in cells; host or cells: OVCAR3
T1 sequence (P31751 whole entry): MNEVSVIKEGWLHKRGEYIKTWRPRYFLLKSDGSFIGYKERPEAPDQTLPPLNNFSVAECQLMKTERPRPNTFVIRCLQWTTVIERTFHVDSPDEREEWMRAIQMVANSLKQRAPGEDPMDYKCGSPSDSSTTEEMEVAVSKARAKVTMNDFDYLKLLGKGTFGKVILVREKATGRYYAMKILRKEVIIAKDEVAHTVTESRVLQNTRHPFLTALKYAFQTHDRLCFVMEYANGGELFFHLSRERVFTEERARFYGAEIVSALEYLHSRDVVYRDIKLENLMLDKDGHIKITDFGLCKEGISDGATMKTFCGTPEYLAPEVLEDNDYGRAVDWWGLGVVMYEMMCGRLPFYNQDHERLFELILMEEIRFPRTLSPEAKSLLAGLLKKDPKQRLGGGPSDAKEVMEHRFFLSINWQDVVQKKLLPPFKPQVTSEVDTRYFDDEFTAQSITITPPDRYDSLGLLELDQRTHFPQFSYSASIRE
Method: OVCAR3 cells (ATCC) were grown in RPMI-1640 media containing 20% fetal bovine serum. Passage three cells were grown to ˜80% confluence. Cells were lysed with lysis buffer (10 mM Tris-Cl (pH=7.5), 100 mM NaCl, 1% (v/v) Triton X-100, 0.1% SDS (w/v), 0.5% deoxycholate, 1 mM DTT, 1 mM EDTA, 1× PhosStop phosphatase inhibitors (Roche), 1× Complete protease inhibitors (Roche)) and the amount of protein measured using BCA Protein Assay Kit (Pierce Biotechnologies, Inc). Streptavidin-agarose resin solution (EMD) was swelled in TBST (25 mM tris chloride, pH=7.5, 150 mM NaCl, 0.05% Tween-20). Each of the biotinylated ligands was immobilized on the Streptavidin-agarose resin by adding 7.2 μL of 1 mM ligand stock (DMSO) to 10 μL of the swelled streptavidin-agarose resin. For the blank control, the resin was treated with 7.2 μL of 1 mM biotinylated acyl glycine. […] After shaking overnight at 4° C., 50 μM D-biotin was added to the resin to block any remaining sites. The resin was washed with TBST five times, for fifteen minutes each. The resin was then swelled in binding buffer for two hours. To each of the immobilized ligands, 200 μL OVCAR3 cell lysate (1.9 mg/ml) was added. The tubes were shaken at 4° C. for 18 hours. The beads were extensively washed, three times for fifteen minutes in binding buffer, three times (fifteen minutes) in TBST, and three times (fifteen minutes) in TBS to remove unbound proteins. The resin bound proteins were eluted by adding 40 μL of 2×SDS-PAGE sample loading buffer (BioRad) and heating at 95° C. for five minutes. A 1:10 diluted sample of lysate in sample loading buffer was prepared by mixing 1 μL of the sample with 9 μL sample loading buffer and denaturing the sample by heating at 95° C. for five minutes. 10 μL of each sample was loaded on a 12% SDS-PAGE gels (BioRad) and run for 80 minutes at 110 volts. Three identical gels were loaded and run at the same time. One gel was used for Coomassie staining with Coomassie Fluor Orange Protein Gel Stain (Molecular Probes) following the manufacturer's protocol. The two other gels were transferred to nitrocellulose membranes by the semidry transfer method, blocked for two hours at 4° C. with 5% non-fat milk, and treated overnight at 4° C. with a 1:1000 dilution of pan-Akt rabbit monoclonal antibody (Cell Signaling Technology) and a 1:1000 dilution of pS473 Akt rabbit monoclonal antibody (Cell Signaling Technology), respectively, in 0.5% non-fat milk. The membranes were washed and treated for an hour with a 1:10,000 dilution of monoclonal mouse anti-rabbit-HRP secondary antibody (Cell Signaling Technology) in 0.5% milk. After five washes of five minutes each with TBST and one wash of five minutes with TBS, the blots were developed with West Dura ECL substrate (Thermo Scientific) and imaged on film.

Akt2 = Akt2 (Homo sapiens, UniProt P31751); assay: Single component ELISA, PCC agent as capture or detection agent (relative affinity); set-up: purchased Abcam; conditions: relative affinity; read-out: affinity by single-component immunoassay
Akt2, sequence (P31751 whole entry, the tested form may be a part, canonical isoform): as the sequence (P31751 whole entry) above
From the text: FIG. 23: A. ELISA assays in which the PCC Agents are utilized as either as surface-localized capture agents (for N-tL, C-tL) or as the detection agent (for mono-L, bi-L). Such assays provide relative affinity measurements, which are given as EC50 values in the key. […] C. C-tL distinguishes the full length Akt2 from isoform proteins Akt1 and Akt3. D. The 32 amino acid long C terminal fragment from Akt2, Akt1 and Akt3. The hydrophobic motif is highlighted in blue. pS refers to phospho-serine. […] F. Selectivity assays: Biotinylated ligands or biotinylated pS473 antibody is immobilized on streptavidin-agarose and treated with OVCAR3 cell lysate. The eluents are stained with a pan-Akt antibody or pS473 Akt antibody.
1.25 μM biotinylated ligand was prepared by diluting the 1 mM stock in binding buffer (25 mM tris chloride, pH=7.4, 150 mM NaCl, 0.1% BSA, 0.05% Tween 20). The prepared ligand solution or 0.125% DMSO in buffer (buffer control) was immobilized on a High Capacity Streptavidin 96 well plate (Thermo Scientific). After washing away the excess ligand, the plate was blocked overnight with 1% BSA/25 mM tris chloride, pH=7.4/150 mM NaCl, 0.05% Tween 20. 2.5 μM solutions of the His6 (SEQ ID NO:28) tagged target phosphopeptide epitope Akt2 amino acids 450-481, His6 (SEQ ID NO:28) tagged Akt1 amino acids 449-480, His6 (SEQ ID NO:28) tagged Akt3 amino acids 448-479 were added to each of the wells. Following three washes with the binding buffer, the plate was treated for an hour with a 1:1000 dilution of anti His6 (SEQ ID NO:28) mouse monoclonal antibody. A 1:10,000 dilution of goat anti mouse antibody-Horse Radish Peroxide conjugate in binding buffer was added to the wells. The plates were washed four times, five minutes each, with 0.05% Tween 20/TBS (25 mM tris chloride, pH=7.5, 150 mM NaCl) and once with TBS (25 mM tris chloride, pH=7.5, 150 mM NaCl). Color was developed by adding TMB substrate (KPL) to each well. The reaction was quenched with 0.5 M H2SO4. The A450 measured on a 96-well plate reader. The Net A450 was obtained by subtracting the absorbance value for the blank control (no immobilized ligand) from each of the triplicate values obtained for the ligand-epitope interaction. The selectivity assay with full length His6 (SEQ ID NO:28) tagged Akt1, Akt2 and Akt3 was performed following the same protocol, using 25 nM protein instead of 2.5 μM His6 tagged peptide epitope.

[1] = tested on: mouse anti His6 antibody and anti mouse-alkaline phosphatase; assay: Elimination of peptide binders to antibody, on-bead BCIP colour test; conditions: colour intensity of beads; clear beads are not background binders
Method: Since a preclear screen was not performed against the mouse-Anti His6 antibody and the anti-mouse-alkaline phosphatase antibody, to eliminate peptide binders to the antibodies, all the dark colored peptide hits obtained in the earlier target screen were synthesized on Tentagel-S—NH2 resin. 10 beads of each sequence was taken in spinnex tubes, equilibrated in binding buffer, and then treated with a 1:1000 diluted solution of mouse anti His6 antibody (Abcam) for an hour at 4° C. Following three five minute washes with the binding buffer, a 1:10,000 diluted solution of anti mouse-alkaline phosphatase was added and the shaken for one hour at 4° C. The beads were washed three times for five minutes each with wash buffer 3, followed by three five minute washes with wash buffer 4. The beads were then developed in BCIP solution for thirty minutes and quenched with 0.1 N HCl. The color intensity of the different sequences is recorded in Table 5, along with the probability that the sequence is a binder to the protein and not a background binder (clear beads). The probability arises from the poor resolution of certain amino acid standards in the Edman sequencer during sequencing the hits from the N terminal triligand target screen.

Row | Color [1] | Molecule | also measured
1 | – | CC(=O)NC(CCCCn1cc(C[C@@H](NC(=O)CCCCn2cc(C[C@@H](NC(=O)[C@@H](Cc3ccccc3)NC(=O)[C@@H](Cc3ccc(O)cc3)NC(=O)CNC(=O)[C@@H](CC(N)=O)NC(=O)[C@H](N)Cc3c[nH]cn3)C(=O)O)nn2)C(=O)N[C@H](Cc2c[nH]c3ccccc23)C(=O)N[C@H](CCCCN)C(=O)N[C@@H](C(=O)N[C@H](CCCCN)C(=O)N[C@H](CC(C)C)C(N)=O)C(C)C)nn1)C(=O)NCCOCCOCCOCCC(=O)NCCNC(=O)CCCC[C@@H]1SC[C@@H]2NC(=O)N[C@@H]21 (stereo partly shown) [bi-L] | immunoprecipitation of Akt from OVCAR3 cell lysate (Akt; listed as Bi2): best candidate; immunoprecipitation of Akt from OVCAR3 cell lysate (Akt; listed as biligand): higher selectivity to immunopreciptate Akt from OVCAR3 cell lysate; EC50 (Akt2): ~1000 nM
2 | – | CC(=O)NC(CCCCn1cc(C[C@@H](NC(C)=O)C(=O)N[C@H](Cc2c[nH]c3ccccc23)C(=O)N[C@H](CCCCN)C(=O)N[C@@H](C(=O)N[C@H](CCCCN)C(=O)N[C@H](CC(C)C)C(N)=O)C(C)C)nn1)C(=O)NCCOCCOCCOCCC(=O)NCCNC(=O)CCCC[C@@H]1SC[C@@H]2NC(=O)N[C@@H]21 (stereo partly shown) [mono-L] | immunoprecipitation of Akt from OVCAR3 cell lysate (Akt): sufficient selectivity to immunoprecipitate Akt from OVCAR3 cancer cell lysate; EC50 (Akt2): ~3000 nM
3 | No color | (D-Pra)-ssGry ([dPra][dS][dS]G[dR][dY]) [SEQ ID NO: 14, on-bead 3° peptide hit of N-tL screen] | –
4 | No color | (D-Pra)-yyrfG ([dPra][dY][dY][dR][dF]G) [SEQ ID NO: 13, on-bead 3° peptide hit of N-tL screen] | –
5 | – | Bi5: biligand candidate with hnGii-(D-Pra) as the 2° peptide arm (peptide 1 [dPra][dW][dK][dV][dK][dL]; peptide 2 [dH][dN]G[dI][dI][dPra]; not fully specified (bridges)) | immunoprecipitation of Akt from OVCAR3 cell lysate (Akt): did not show any Akt pulldown
6 | – | Bi6: biligand candidate with hnGGd-(D-Pra) as the 2° peptide arm (peptide 1 [dPra][dW][dK][dV][dK][dL]; peptide 2 [dH][dN]GG[dD][dPra]; not fully specified (bridges)) | immunoprecipitation of Akt from OVCAR3 cell lysate (Akt): did not show any Akt pulldown
7 | – | N-tri2: N terminal triligand candidate: (D-Pra)-ssGry clicked to anchor-3N (peptide 1 [dW][dK][dV][dK][dL]; peptide 2 [dH][dN]G[dY][dF]; peptide 3 [dPra][dS][dS]G[dR][dY]; not fully specified (bridges); also: arms clicked by triazole to anchor-3N scaffold (not listed)) | immunoprecipitation of Akt from OVCAR3 cell lysate (Akt): immunoprecipitate Akt2 from OVCAR3 cells
8 | light | SEQ ID NO: 52: on-bead peptide D-Pra-yvyrf, hit of N-tL screen ([dPra][dY][dV][dY][dR][dF]) | –
9 | light | SEQ ID NO: 53: on-bead peptide D-Pra-sfrrf, hit of N-tL screen ([dPra][dS][dF][dR][dR][dF]) | –
10 | dark | SEQ ID NO: 58: on-bead peptide D-Pra-rriyy, hit of N-tL screen ([dPra][dR][dR][dI][dY][dY]) | –
11 | light | SEQ ID NO: 60: on-bead peptide D-Pra-kfqfr, hit of N-tL screen ([dPra][dK][dF][dQ][dF][dR]) | –
12 | light | SEQ ID NO: 61: on-bead peptide D-Pra-lfqfr, hit of N-tL screen ([dPra][dL][dF][dQ][dF][dR]) | –
13 | light | SEQ ID NO: 62: on-bead peptide D-Pra-kftfr, hit of N-tL screen ([dPra][dK][dF][dT][dF][dR]) | –
14 | light | SEQ ID NO: 63: on-bead peptide D-Pra-lftfr, hit of N-tL screen ([dPra][dL][dF][dT][dF][dR]) | –
15 | No color | SEQ ID NO: 64: on-bead peptide D-Pra-rdrfr, hit of N-tL screen ([dPra][dR][dD][dR][dF][dR]) | –
16 | medium | SEQ ID NO: 65: on-bead peptide D-Pra-rnrfr, hit of N-tL screen ([dPra][dR][dN][dR][dF][dR]) | –
